Reference: article PMC7726444 (Frontiers in Pharmacology, 2020)

What was measured:
[1] = system: 5-HT content in brain and serum; assay: LC-MS/MS determination of 5-HT levels in brain and serum; type: in vivo, mouse; details: 100 mg/kg i.p. once daily for 4 days
Excerpt: Male CD-1 mice (Janvier Labs, Le Genest-St-Isle, France), 3 months of age were used. The animals in the different treatment groups were matched for age. The University of Barcelona’s Committee on Animal Use and Care approved the protocol. Animals were housed and tested in compliance with the guidelines described in the Guide for the Care and Use of Laboratory Animals ([Clark et al., 1997]) and following the European Union directives (2010/63/EU), FELASA and ARRIVE guidelines. All efforts were made to minimize animal suffering and the number of animals used. All animals were housed in groups of five in standard cages with ad libitum access to food and water and maintained under a 12-h dark/light cycle (starting at 7:30 AM), 22°C temperature, and 66% humidity. […]
Quantitative analysis of 5-HT was carried out by liquid chromatography coupled with tandem mass spectrometry (LC-MS/MS) using an Agilent 1,290 Infinity UHPLC chromatograph (Santa Clara, CA) coupled to a 6500 QTRAP mass spectrometer (ABSciex, Framingham, MA) equipped with an Ion Drive Turbo V ion source operating in positive ion mode. […] Sample-to-sample differences in recovery, liquid handling, and ionization efficiency were compensated for by normalizing to the amount of 5-HT-d4 detected in the samples. […]

[2] = biological target: T1, doubly truncated TPH1 (ΔNH102-ΔCOOH402) (Homo sapiens, UniProt P17752); assay: Tryptophan hydroxylase enzymatic activity assay (HPLC quantification of 5-OH-Trp), doubly truncated TPH1; type: biochemical
T1 construct: The ΔNH102-ΔCOOH402 human TPH1 gene was cloned; six-His (C); made in house

[3] = biological target: T1, doubly truncated TPH1 (ΔNH102-ΔCOOH402); assay: Mechanism of action and kinetics analysis of TPH1 inhibition (Michaelis-Menten); type: biochemical
Procedure: 5-OH-Trp formation was measured either at a fixed concentration (200 µM) of the cofactor, BH4, and varying concentrations (0.625–20 µM) of the substrate, L-Trp, or in the presence of varying concentrations of BH4 (2.4–200 µM) and a fixed concentration (20 µM) of L-Trp. Kinetic parameters were estimated by fitting the Michaelis-Menten model to the data using nonlinear regression.
Human doubly truncated TPH1 (ΔNH102-ΔCOOH402) was used for kinetic protein-ligand interaction studies. The enzyme assays were performed as described above. […] When enzyme activity was measured as a function of substrate (L-Trp) concentration (0.625–20 µM), the concentration of the cofactor (BH4) was fixed at 200 µM.

WT full-length TPH2 = biological target: T2, WT full-length TPH2 (Homo sapiens, UniProt Q8IWU9); assay: Tryptophan hydroxylase enzymatic activity assay, WT full-length TPH2; type: biochemical; details: mean (95% confidence interval), three experiments in duplicate
T2 construct: both the doubly truncated TPH1 protein and WT full-length TPH2 protein; made in house
T2 sequence (Q8IWU9 1-490): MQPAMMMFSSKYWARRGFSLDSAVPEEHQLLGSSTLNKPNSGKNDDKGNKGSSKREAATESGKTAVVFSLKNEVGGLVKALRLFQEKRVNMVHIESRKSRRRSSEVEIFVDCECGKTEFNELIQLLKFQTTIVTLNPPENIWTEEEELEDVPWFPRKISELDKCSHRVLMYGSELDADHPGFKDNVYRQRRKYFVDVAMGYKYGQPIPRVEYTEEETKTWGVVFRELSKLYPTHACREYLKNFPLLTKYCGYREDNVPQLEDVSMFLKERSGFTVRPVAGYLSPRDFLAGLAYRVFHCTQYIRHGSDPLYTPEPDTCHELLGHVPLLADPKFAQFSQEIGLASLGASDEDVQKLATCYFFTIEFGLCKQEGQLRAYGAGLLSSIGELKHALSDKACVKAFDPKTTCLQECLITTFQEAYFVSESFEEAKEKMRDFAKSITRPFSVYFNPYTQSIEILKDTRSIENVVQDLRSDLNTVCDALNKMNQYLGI

T1 sequence (P17752 102-402, stated change not applied): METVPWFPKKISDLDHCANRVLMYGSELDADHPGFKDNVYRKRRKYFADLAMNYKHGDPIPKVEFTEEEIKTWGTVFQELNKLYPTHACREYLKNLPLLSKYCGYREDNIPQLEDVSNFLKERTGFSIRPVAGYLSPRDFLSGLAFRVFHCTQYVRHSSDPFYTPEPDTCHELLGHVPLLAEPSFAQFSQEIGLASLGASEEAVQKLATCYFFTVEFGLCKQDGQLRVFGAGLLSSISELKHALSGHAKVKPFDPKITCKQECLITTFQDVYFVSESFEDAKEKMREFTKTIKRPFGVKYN

reduction of TPH1 activity ([2]; 100 µM compound, preliminary activity assay): more than 50% | IC50 ([2]; doubly truncated TPH1, 20 µM L-Trp, 200 µM BH4, 37°C, mean (95% confidence interval), three experiments in duplicate): 3.09 µM | Vmax ([3]; (A) L-Trp 0.625–20 µM, BH4 200 µM, omeprazole 1 µM): 24.96 (23.18–26.74) µmol/min/mg | Vmax ([3]; (A) L-Trp 0.625–20 µM, BH4 200 µM, omeprazole 10 µM): 21.08 (18.84–23.32) µmol/min/mg | Vmax ([3]; (A) L-Trp 0.625–20 µM, BH4 200 µM, omeprazole 100 µM): 7.03 (6.07–7.98) µmol/min/mg | Vmax ([3]; (B) BH4 2.4–200 µM, L-Trp 20 µM, omeprazole 1 µM): 39.93 (37.18–42.69) µmol/min/mg | Vmax ([3]; (B) BH4 2.4–200 µM, L-Trp 20 µM, omeprazole 10 µM): 31.06 (28.90–33.21) µmol/min/mg | Vmax ([3]; (B) BH4 2.4–200 µM, L-Trp 20 µM, omeprazole 100 µM): 21.11 (18.96–23.26) µmol/min/mg | mode of TPH1 inhibition ([3]; with respect to L-Trp and to BH4): non-competitive inhibitor | IC50 (WT full-length TPH2): 4.3 µM
SMILES: COc1ccc2[nH]c([S+]([O-])Cc3ncc(C)c(OC)c3C)nc2c1 (stereo not drawn) [Omeprazole]
5-HT content in serum vs vehicle ([1]; serum): significantly higher 5-HT content | 5-HT content in brain vs vehicle ([1]; whole-brain tissue): significantly higher 5-HT content
